Source: patent US10500198B2, “Bis-benzylidine piperidone proteasome inhibitor with anticancer activity” (The Johns Hopkins University, priority 2013, dated 2019)

Assays:
[1] = test system: ES-2; assay: Cell viability after 48-hr treatment (Table 1); format: cell-based, human; conditions: XTT assay
Experimental: (§1) Cells seeded at the concentration of 1,000 cells/well for HeLa, 5,000 cells/well for ES2 and HCT116 and 10,000-20,000 cells/well for other cell lines in 100 μL medium in 96-well plate were treated with RA series compounds at specified concentrations. […]

[2] = test system: NCl-H929; assay: Cell viability after 48-hr treatment (Table 1); format: cell-based, human; conditions: XTT assay
Experimental: as §1

[3] = Pharmacokinetic measurements, plasma; format: in vivo, mouse; conditions: 20 mg/kg oral, BALB/c mice
[4] = test system: SKOV3; assay: Cell viability after 48-hr treatment (Table 1); format: cell-based; conditions: 48-hr treatment; XTT assay; read-out: IC50, SKOV3
Procedure, shortened: (§2)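 Viable cells were then quantified by a 1-2 hr MTS reaction with absorbance measured at 490 nm.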

[5] = test system: FaDu; assay: Cell viability after 48-hr treatment (Table 1); format: cell-based; conditions: 48-hr treatment; XTT assay; read-out: IC50, FaDu
Procedure, shortened: (§3)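 Cells were seeded at 5,000/well for ES2 and 10,000-20,000/well for other lines, then treated 48 h with compounds at specified concentrations. Viability was measured by MTS reduction (1-2 h) and absorbance at 490 nm.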

[6] = test system: C33A; assay: Cell viability after 48-hr treatment (Table 1); format: cell-based; conditions: 48-hr treatment; XTT assay; read-out: IC50, C33A
Procedure, shortened: as §2

[7] = test system: MM.1S; assay: Cell viability after 48-hr treatment (Table 1); format: cell-based; conditions: XTT assay
Experimental: Cell viability was assayed using CellTiter 960 AQueous One Solution Reagent (Promega, Madison, Wis.). Cells seeded at the concentration of 1,000 cells/well for HeLa, 5,000 cells/well for ES2 and HCT116 and 10,000-20,000 cells/well for other cell lines in 100 μL medium in 96-well plate were treated with RA series compounds at specified concentrations. […]

[8] = test system: SiHa; assay: Cell viability after 48-hr treatment (Table 1); format: cell-based; conditions: 48-hr treatment; XTT assay; read-out: IC50, SiHa
Procedure, shortened: as §3

[9] = test system: HaCaT; assay: Cell viability after 48-hr treatment (Table 1); format: cell-based; conditions: 48-hr treatment; XTT assay; read-out: IC50, HaCaT
Procedure, shortened: as §2

[10] = test system: HT3; assay: Cell viability after 48-hr treatment (Table 1); format: cell-based; conditions: 48-hr treatment; XTT assay; read-out: IC50, HT3
Procedure, shortened: as §2

[11] = test system: RPMI8226; assay: Cell viability after 48-hr treatment (Table 1); format: cell-based; conditions: XTT assay
Procedure, shortened: as §2

[12] = test system: HPV transformed cells; assay: Cell viability, HPV transformed cells; format: cell-based; conditions: antiproliferative effects, 48-hr treatment; read-out: IC50 against HPV transformed cells
Experimental: Cell viability was assayed using CellTiter 960 AQueous One Solution Reagent (Promega, Madison, Wis.). Cells seeded at the concentration of 1,000 cells/well for HeLa, 5,000 cells/well for ES2 and HCT116 and 10,000-20,000 cells/well for other cell lines in 100 μL medium in 96-well plate were treated with RA series compounds at specified concentrations. After the indicated periods, cells were incubated according to the manufacturer's protocol with the MTS labeling mixture for 1-2 hr and absorbance at 490 nm measured using a Benchmark Plus microplate spectrophotometer (BIO-RAD).

[13] = Tissue levels 48 hr after single i.p. dose; format: in vivo, mouse; conditions: 48 hr after single i.p. dose of 10 mg/kg
Experimental: Tissue was harvested at 48 hr after single-dose intraperitoneal administration in non-tumor bearing mice. Blood was collected by cardiac puncture under anesthesia into heparinized syringes and centrifuged to obtain plasma. Tissues were rapidly dissected and snap frozen in liquid nitrogen. Samples were stored frozen at −70° C. until analysis. […] Tissue homogenates were prepared at a concentration of 200 mg/mL in PBS and further diluted 1:10 in mouse plasma before extraction using acetonitrile containing temazepam (100 ng/mL). Separation was achieved on Waters X-Terra™ C18 (50 mm×2.1 mm i.d., 3 μm) at room temperature using isocratic elution with acetonitrile/water mobile phase (70:30, v/v) containing 0.1% formic acid at a flow rate of 0.2 mL/min. […] Samples were quantitated over the assay range of 10 to 1000 ng/mL or 0.6 to 60 μg/g. […] Cmax and Tmax were the observed values from the mean data. The AUClast was calculated using the log-linear trapezoidal rule to the end of sample collection (AUClast) and extrapolated to infinity (AUC0-∞) by dividing the last quantifiable concentration by the terminal disposition rate constant (λz), which was determined from the slope of the terminal phase of the concentration-time profile. The half-life (T1/2) was determined by dividing 0.693 by λz. Relative bioavailability was calculated as follows: […]

[14] = test system: HeLa cells; assay: Drug combination index assay; format: cell-based, human; conditions: 48 hr, read-out: IC50 (single agent, Compusyn)
Experimental: The combination indices and a normalized isobologram were calculated using Compusyn software (www.combosyn.com).

[15] = test system: HOK-16B; assay: Cell viability after 48-hr treatment (Table 1); format: cell-based; conditions: 48-hr treatment; XTT assay; read-out: IC50, HOK-16B
Procedure, shortened: as §3

[16] = test system: CasKi; assay: Cell viability after 48-hr treatment (Table 1); format: cell-based; conditions: 48-hr treatment; XTT assay; read-out: IC50, CasKi
[17] = test system: TC-1 tumor; assay: TC-1 tumor in C57BL6 mice; format: in vivo, mouse
Experimental: For TC-1 tumors, C57BL/6 mice (8/group) were challenged subcutaneously with 5×10^4 TC-1 cells/mice. Tumors grew for approximately 7 days until they were palpable, whereupon the mice were weighed and treatment was initiated. Tumor size was measured with a digital caliper and calculated based on the formula: [largest diameter×(perpendicular diameter)2]π/6. Nude mice (8 per group) were inoculated with 1×10^6 EΩ-Luciferase cells i.p. in 100 μL PBS. At day 3 mice were imaged for basal level luminescence expression. […] NOG mice (5 per group) were inoculated with 1×10^6 NCI-H929-GFP-Luc cells i.v., and after 4 weeks, mice were imaged for their luciferase activity and divided into two groups.
Splenocytes were prepared and stimulated with HPV16 E7aa49-57 peptide (1 μg/mL) at the presence of GolgiPlug (BD Pharmingen) overnight at 37° C. The cells were first stained with PE-conjugated anti-mouse CD 8α (BD Pharmingen), then permeabilized, fixed and intracellularly stained with FITC-conjugated anti-mouse IFN-γ (BD Pharmingen). The data were acquired with FACS Calibur and analyzed with CellQuest software.

[18] = test system: 4UbFL reporter; assay: Proteasome inhibition in vivo (4UbFL reporter bioluminescence)
Experimental: After the indicated time points of treatment, bioluminescence was measured by injection of luciferin and imaging with an IVIS 200 (fold change±SD, *p<0.05, **p<0.01).
Two hours after gene gun delivery of the plasmid or one day post electroporation, mice were injected i.p. with 100 uL of luciferin (3 mg/mL) and anesthetized with isoflurane and optical imaging was performed for basal level luciferase expression. Images were acquired for 10 min with a Xenogen IVIS 200 (Caliper, Hopkinton, Mass.). Equally sized areas were analyzed using Living Image 2.20 software.

[19] = i.m. electroporated 4UbFL, RA190 40 mg/kg i.p., bortezomib 1.5 mg/kg i.p.

## Cl.N[C@@H](Cc1ccccc1)C(=O)N1CC(=Cc2ccc(Cl)c(Cl)c2)C(=O)C(=Cc2ccc(Cl)c(Cl)c2)C1 [RA190, 3,5-bis(3,4-dichlorobenzylidene)-1-(S-2-amino-3-phenyl)-piperidin-4-one-HCl salt]
[1]
  IC50: 750 nM
[2]
  IC50: 50 nM
[3]
  AUC: 634 ng·h/mL
  C1/F: 527 mL/min/kg
  Cmax: 133 ng/mL
  T1/2β: 2.6 h
  Ud/F: 117.3 L/kg
[4]
  IC50: > 2500 nM
[5]
  IC50: > 2500 nM
[6]
  IC50: > 5000 nM
[7]
  IC50: 35 nM
[8]
  IC50: 750 nM
[9]
  IC50: > 2500 nM
[10]
  IC50: > 5000 nM
[11]
  IC50: 100 nM
[12]
  IC50: ≤ 300 nM
[13]
  RA190 detected in brain: not brain
  RA190 detected in kidney: 0.61 µg/g
  RA190 detected in liver: 0.57 µg/g
  RA190 detected in lung: 0.66 µg/g
  RA190 detected in spleen: 0.59 µg/g
[14]
  IC50: 184 nM
[15]
  IC50: 600 nM
[16]
  IC50: 300 nM
[17]; i.p. 20 mg/kg daily for 7 days, western blot
  polyubiquitinated proteins in tumor lysates: dramatically elevated
[17]; oral 40 mg/kg every third day
  weight gain and spontaneous E7-specific CD8+ T cell response versus vehicle: did not differ significantly
[17]; oral 40 mg/kg every third day, after 14-day treatment period
  final tumor weight: 727 ± 101 mg
[17]; oral 40 mg/kg every third day, p<0.001
  TC-1 tumor growth versus vehicle: significantly inhibited
[18]; 40 mg/kg orally, 4UbFL i.m. by electroporation or in skin via gene gun
  bioluminescence after oral administration: increased the bioluminescence
[18]; 4% in Cremophor-EL topically
  4UbFL reporter in skin after topical administration: stabilized the 4UbFL reporter in skin
[18]; i.m. electroporated 4UbFL, RA190 40 mg/kg i.p.
  bioluminescence at 48 hr after treatment: significant increase in bioluminescence
[18]; [19]
  bioluminescence compared to vehicle alone, 4 hr after treatment: 4 fold
  increase in bioluminescence, one day post-treatment: 4 fold
